“And” between values parts separate entries of the source, which are not always exact repeats. Equal values may be shown once. Where a name gives a salt, the structure may show the parent alone.
Assays:
[1] = biological target: T1, 5-lipoxygenase (Rattus norvegicus, UniProt P12527); assay: ARBL whole cell 5-lipoxygenase assay (LTB4 formation in RBL-1 cells); assay type: cell-based; conditions: for IC50: A23187 stimulated, read-out: ARBL IC50 for LTB4 inhibition; for inhibition at 10 µM: read-out: ARBL % inhibition of LT
T1 construct: host or cells: RBL-1 rat basophilic leukemia cells
T1 sequence (P12527 1-673): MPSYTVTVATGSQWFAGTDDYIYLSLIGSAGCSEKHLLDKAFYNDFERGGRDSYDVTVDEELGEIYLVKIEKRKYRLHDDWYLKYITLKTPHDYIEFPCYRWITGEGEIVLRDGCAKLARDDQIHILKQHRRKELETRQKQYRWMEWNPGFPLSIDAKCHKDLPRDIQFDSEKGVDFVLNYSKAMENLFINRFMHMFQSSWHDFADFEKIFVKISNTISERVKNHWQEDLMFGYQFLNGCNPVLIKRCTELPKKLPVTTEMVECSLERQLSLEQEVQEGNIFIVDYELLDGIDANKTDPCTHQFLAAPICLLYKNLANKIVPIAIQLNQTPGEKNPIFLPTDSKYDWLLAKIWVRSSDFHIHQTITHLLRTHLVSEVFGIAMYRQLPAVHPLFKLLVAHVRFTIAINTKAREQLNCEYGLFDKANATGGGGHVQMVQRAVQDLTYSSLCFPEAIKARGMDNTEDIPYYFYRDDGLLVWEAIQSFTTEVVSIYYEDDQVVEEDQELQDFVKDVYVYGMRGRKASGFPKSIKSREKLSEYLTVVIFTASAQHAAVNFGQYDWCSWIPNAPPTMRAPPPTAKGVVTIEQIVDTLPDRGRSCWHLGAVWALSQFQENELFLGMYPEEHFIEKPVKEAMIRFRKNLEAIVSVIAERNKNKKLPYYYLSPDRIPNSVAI
Method: (§1) ARBL/ARBC WHOLE CELL 5-LIPOXYGENASE AND CYCLOOXYGENASE ASSAYS
(§2) The rat basophilic leukemia cell line (RBL-1) was obtained from the American Type Culture Collection (Rockville, Md.).
(§3) Radioimmunoassay (RIA) kits of LTB4 and PGF2.sbsb.α were obtained from Amersham (Arlington Heights, Ill.) and Seragen (Boston, Me.), respectively.
(§4) All tissue culture media were obtained from GIBCO (Grand Island, N.Y.).
(§5) RBL-1 cells are grown in suspension culture in Eagle's minimum essential medium supplemented with 12% fetal bovine serum at 37° C. in an incubator supplied with air-5% carbon dioxide. Cells are harvested by centrifugation. They are washed with cold phosphate buffered saline pH 7.4 (PBS; NaCl, 7.1 g; Na2 HPO4, 1.15 g; KH2 PO4, 0.2 g; and KCl, 0.2 g/L). Cells are finally suspended in PBS containing 1.0 mM calcium at a density of 2×10^6 cells/mL. Cells are incubated with and without test agent (in DMSO) (1% DMSO is without effect on arachidonic acid metabolism) for 10 minutes at room temperature. Calcium ionophore A23187 (5 μM) is added and cells are incubated for 7 minutes at 37° C. The reaction is stopped by chilling the tubes on ice for 10 minutes. Cells are separated by centrifugation and the supernatant is stored at -20°. Aliquots (100 μL) are analyzed for LTB4 and PGF2.sbsb.α using radioimmunoassay kits as provided by the supplier.
(§6) Table I contains biochemical data obtained from this whole cell assay as IC50 s which are calculated as the amount of test compound causing 50% inhibition or % of inhibition at the named micromoles (μM) of LTB4 or PGF2.sbsb.α formation.

[2] = test system: cyclooxygenase; assay: ARBC whole cell cyclooxygenase assay (PGF2α formation in RBL-1 cells); assay type: cell-based, rat; conditions: for IC50: A23187 stimulated; for ARBC % inhibition of PGF2α: @ 10 μM
Method: as §1, §2, §3, §4, §5, §6

[3] = test system: Mycobacterium-induced rat footpad edema; assay: Mycobacterium-induced rat footpad edema assay (MFE); assay type: in vivo; conditions: for ED40: Rattus norvegicus, swelling 72 hours after Mycobacterium injection, read-out: MFE ID40 (dose at which swelling is inhibited by 40%); for MFE % inhibition of swelling: 72 hours
Method: MYCOBACTERIUM-INDUCED RAT FOOTPAD EDEMA ASSAY (MFE): PROTOCOL
Mycobacterium butyricum (5 mg/mL) is suspended in paraffin oil by sonication for 10 minutes in an ice bath. Footpad edema is induced on Day 0 by injecting 0.1 mL of the Mycobacterium mixture into the left hindpaw of lightly anesthetized rats. Swelling in the injected hindpaw is determined by mercury plethysmography 72 hours after injection. Groups of rats are treated with test compounds (suspended in 0.5% hydroxypropyl methylcellulose with 0.2% Tween-80) or vehicle 1 hour before Mycobacterium injection and on Days 1 and 2. Inhibition of swelling is determined by comparing the change in hindpaw volume in compound- and vehicle-treated rats. An ID40 (the dose at which swelling is inhibited by 40%) is calculated by probit analysis or shown as the % inhibition at the dose expressed as μM, i.e., % at μM.

[4] = test system: gastric ulcers in rats; assay: Gastric ulcerogenicity (UD); assay type: in vivo, Wistar rats; set-up: key: N is not active at the dose tested; conditions: @ 200; oral, fasted rats, 6 hours
Method: GASTRIC ULCEROGENICITY (UD): PROTOCOL
Male outbred Wistar rats (100-250 g) are fasted for 24 hours. After fasting, test compounds are administered orally (in 2 mL/kg of 0.5% hydroxypropyl methylcellulose) and the rats are denied access to food and water for 6 more hours. The rats are then sacrificed with CO2 so that the stomachs can be removed, opened along the greater curvature, and evaluated for the presence of gastric ulcers. Results are expressed as the percent of rats with gastric ulcers at a given dose or as the UD50 (the dose which causes ulcers in 50% of the rats).

[5] = test system: carrageenan-induced rat foot paw edema; assay: Carrageenan-induced rat foot paw edema-2 (CFE-2) assay; assay type: in vivo; conditions: dosed 1 hour before carrageenan, edema at 5 hours
Method: Carrageenan-Induced Rat Foot Paw Edema-2
CARRAGEENAN-INDUCED RAT FOOT PAW EDEMA-2 (CFE-2) ASSAY: PROTOCOL
Carageenan solution (1% w/v) is prepared by dissolving 100 mg carrageenan (Marine Colloidal Div., Springfield, N.J.) in 10 mL of sterile saline (0.9%) solution (Travenol). The solution is vortexed for 30 to 45 minutes. Animals are dosed with compound 1 hour before carrageenan challenge. Foot paw edema is induced by injecting 0.10 mL of the 1% carrageenan subcutaneously into the plantar portion of the right hind paw of each rat under light anesthesia. Initial foot paw volume is measured immediately following carrageenan challenge using mercury plethysmography (Buxco Electronics). Edema is measured 5 hours after carrageenan. The difference between the 5-hour and the initial paw volume is expressed as delta edema. The delta edema for each test group of animals is used to calculate the percent inhibition of edema achieved by the compound at the test dose compared with the vehicle control group. The data in Table I (the dose at which swelling is inhibited by the noted percent) is calculated by probit analysis for the dose at which percent inhibition occurs.

Compound	IC50 [1]	IC50 [2] [nM]	inhibition at 10 µM [1] [%]	ARBC % inhibition of PGF2α [2] [%]	CFE % inhibition of edema ([5]; @ 30) [%]	CFE % inhibition of edema ([5]; @ 10) [%]	also measured
CC(C)(C)c1cc(/C=C2\SC(=NNC(N)=S)NC2=O)cc(C(C)(C)C)c1O [Example 7, 2-[5-[[3,5-Bis(1,1-dimethylethyl)-4-hydroxyphenyl]methylene]-4-oxo-2-thiazolidinylidene]hydrazine-carbothiamide, (Z)-]	390 nM	4550	–	–	–	–	–
CC(C)(C)c1cc(/C=C2\SC(N)=NC2=O)cc(C(C)(C)C)c1O [Example 1B, 5-[[3,5-Bis(1,1-dimethylethyl)-4-hydroxyphenyl]methylene]-2-imino-4-thiazolidinone, (Z)-, methanesulfonate (1:1) salt]	–	–	100	80	–	–	ED40 [3]: < 10 mg/kg; Gastric Ulcerogenicity UD50 [4]: N
CC(NC1=NC(=O)C(=Cc2cc(C(C)(C)C)c(O)c(C(C)(C)C)c2)S1)C(=O)O (centres unmarked) [Example 12]	–	–	100	55	–	–	–
5-[[3,5-Bis(1,1-dimethylethyl)-4-hydroxylphenyl]methylene]-2-[[2-(dimethylamino)ethyl]amino-4(5H-thiazolone, (Z)- [Example 10]	–	–	–	87	–	–	–
CC(C)(C)c1cc(C=C2SC(NC#N)=NC2=O)cc(C(C)(C)C)c1O [Example 9, [5-[[3,5-Bis(1,1-dimethylethyl)-4,hydroxyphenyl]methylene]-4,5-dihydro-4-oxo-2-thiazolyl]cyanamide]	–	160	–	–	49	–	MFE % inhibition of swelling ([3]; @ 3): 32%
CSC1=NC(=O)/C(=C/c2cc(C(C)(C)C)c(O)c(C(C)(C)C)c2)S1 [Example 5, 5-[[3,5-Bis(1,1-dimethylethyl)-4-hydroxyphenyl]methylene]-2,(methylthio)-4(5H)-thiazolone, (Z)-]	500 nM and 800 nM	< 600	–	–	47	36	MFE % inhibition of swelling ([3]; @ 2): 27%; MFE % inhibition of swelling ([3]; @ 50): 23%
CON(C)C1=NC(=O)/C(=C/c2cc(C(C)(C)C)c(O)c(C(C)(C)C)c2)S1	1700 nM	330	–	–	–	41	ED40 [3]: 13.2 mg/kg
CC(C)(C)c1cc(/C=C2\SC(=NO)NC2=O)cc(C(C)(C)C)c1O [Example 4, 5-[[3,5-bis(1,1-dimethylethyl)-4-hydroxyphenyl]methylene]-2,4-thiazolidinedione, 2-oxime (Z)-]	–	–	100	81	17	32	–
